{"source": "patent US8952024B2", "about": "“Herbicidal pyrimidone derivatives” (E I du Pont de Nemours and Company, priority 2009, dated 2015)", "experiment_in_all_cases": "Test B pre-/postemergence plant response", "assay_type_in_all_cases": "in vivo", "details_in_all_cases": "Postemergence", "key": {"[1]": {"system": "cocklebur (Xanthium strumarium)", "procedure,_shortened": "(§1)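 Steps: sow seed in loam–sand soil and spray preemergence, or grow plants in peat-based medium to 1–4 leaves (2–18 cm) and spray postemergence; formulation is non-phytotoxic solvent plus surfactant; hold in greenhouse 13–15 days; score visually vs controls, 0 = no effect, 100 = complete control.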"}, "[2]": {"system": "giant foxtail (Setaria faberii)", "procedure,_shortened": "as §1"}, "[3]": {"system": "johnsongrass (Sorghum halepense)", "procedure,_shortened": "as §1"}, "soybean (Glycine max)": {"system": "soybean (Glycine max)", "procedure,_shortened": "as §1"}, "corn (Zea mays)": {"system": "corn (Zea mays)", "procedure,_shortened": "as §1"}, "kochia (Kochia scoparia)": {"system": "kochia (Kochia scoparia)", "procedure,_shortened": "as §1"}, "[4]": {"system": "morningglory (Ipomoea coccinea)", "procedure,_shortened": "as §1"}, "[5]": {"system": "goosegrass (Eleusine indica)", "procedure,_shortened": "as §1"}, "[6]": {"system": "velvetleaf (Abutilon theophrasti)", "procedure,_shortened": "as §1"}, "[7]": {"system": "large crabgrass (Digitaria sanguinalis)", "procedure,_shortened": "as §1"}, "[8]": {"system": "blackgrass (Alopecurus myosuroides)", "procedure,_shortened": "as §1"}, "[9]": {"system": "green foxtail (Setaria viridis)", "procedure,_shortened": "as §1"}, "[10]": {"system": "Italian ryegrass (Lolium multiflorum)", "procedure,_shortened": "as §1"}, "[11]": {"details": "31 g ai/ha, 0 to 100 scale (0 no effect, 100 complete control)"}, "[12]": {"details": "62 g ai/ha, scale 0 to 100 (0 no effect, 100 complete control)"}, "[13]": {"details": "125 g ai/ha, scale 0 to 100 (0 no effect, 100 complete control)"}, "[14]": {"details": "250 g ai/ha, scale 0 to 100 (0 no effect, 100 complete control), 13 to 15 days"}}, "data": [{"smiles": "Cc1cc(-n2c(-c3cccc(F)c3)ncc(C(=O)C3=C(O)CCCC3=O)c2=O)ccc1F", "note": "[Compound 191]", "values": [{"measurement": "Plant response rating, Cocklebur", "setting": "[1]; [11]", "value": 90}, {"measurement": "Plant response rating, Cocklebur", "setting": "[1]; [12]", "value": 98}, {"measurement": "Plant response rating, Cocklebur", "setting": "[1]; [13]", "value": 98}, {"measurement": "Plant response rating, Cocklebur", "setting": "[1]; [14]", "value": 100}, {"measurement": "Plant response rating, Foxtail, Giant", "setting": "[2]; [11]", "value": 100}, {"measurement": "Plant response rating, Foxtail, Giant", "setting": "[2]; [12]", "value": 100}, {"measurement": "Plant response rating, Foxtail, Giant", "setting": "[2]; [13]", "value": 100}, {"measurement": "Plant response rating, Foxtail, Giant", "setting": "[2]; [14]", "value": 100}, {"measurement": "Plant response rating, Johnsongrass", "setting": "[3]; [11]", "value": 70}, {"measurement": "Plant response rating, Johnsongrass", "setting": "[3]; [12]", "value": 100}, {"measurement": "Plant response rating, Johnsongrass", "setting": "[3]; [13]", "value": 100}, {"measurement": "Plant response rating, Johnsongrass", "setting": "[3]; [14]", "value": 100}, {"measurement": "Plant response rating, Soybean", "setting": "soybean (Glycine max); [11]", "value": 90}, {"measurement": "Plant response rating, Soybean", "setting": "soybean (Glycine max); [12]", "value": 95}, {"measurement": "Plant response rating, Soybean", "setting": "soybean (Glycine max); [13]", "value": 100}, {"measurement": "Plant response rating, Soybean", "setting": "soybean (Glycine max); [14]", "value": 100}, {"measurement": "Plant response rating, Corn", "setting": "corn (Zea mays); [11]", "value": 65}, {"measurement": "Plant response rating, Corn", "setting": "corn (Zea mays); [12]", "value": 75}, {"measurement": "Plant response rating, Corn", "setting": "corn (Zea mays); [13]", "value": 75}, {"measurement": "Plant response rating, Corn", "setting": "corn (Zea mays); [14]", "value": 85}, {"measurement": "Plant response rating, Kochia", "setting": "kochia (Kochia scoparia); [11]", "value": 5}, {"measurement": "Plant response rating, Kochia", "setting": "kochia (Kochia scoparia); [12]", "value": 10}, {"measurement": "Plant response rating, Kochia", "setting": "kochia (Kochia scoparia); [13]", "value": 25}, {"measurement": "Plant response rating, Kochia", "setting": "kochia (Kochia scoparia); [14]", "value": 35}, {"measurement": "Plant response rating, Morningglory", "setting": "[4]; [11]", "value": 40}, {"measurement": "Plant response rating, Morningglory", "setting": "[4]; [12]", "value": 65}, {"measurement": "Plant response rating, Morningglory", "setting": "[4]; [13]", "value": 90}, {"measurement": "Plant response rating, Morningglory", "setting": "[4]; [14]", "value": 100}, {"measurement": "Plant response rating, Goosegrass", "setting": "[5]; [11]", "value": 95}, {"measurement": "Plant response rating, Goosegrass", "setting": "[5]; [12]", "value": 98}, {"measurement": "Plant response rating, Goosegrass", "setting": "[5]; [13]", "value": 100}, {"measurement": "Plant response rating, Goosegrass", "setting": "[5]; [14]", "value": 100}, {"measurement": "Plant response rating, Velvetleaf", "setting": "[6]; [11]", "value": 75}, {"measurement": "Plant response rating, Velvetleaf", "setting": "[6]; [12]", "value": 80}, {"measurement": "Plant response rating, Velvetleaf", "setting": "[6]; [13]", "value": 90}, {"measurement": "Plant response rating, Velvetleaf", "setting": "[6]; [14]", "value": 100}, {"measurement": "Plant response rating, Crabgrass, Large", "setting": "[7]; [11]", "value": 85}, {"measurement": "Plant response rating, Crabgrass, Large", "setting": "[7]; [12]", "value": 100}, {"measurement": "Plant response rating, Crabgrass, Large", "setting": "[7]; [13]", "value": 100}, {"measurement": "Plant response rating, Crabgrass, Large", "setting": "[7]; [14]", "value": 100}, {"measurement": "Plant response rating, Blackgrass", "setting": "[8]; [11]", "value": 30}, {"measurement": "Plant response rating, Blackgrass", "setting": "[8]; [12]", "value": 45}, {"measurement": "Plant response rating, Blackgrass", "setting": "[8]; [13]", "value": 50}, {"measurement": "Plant response rating, Blackgrass", "setting": "[8]; [14]", "value": 60}, {"measurement": "Plant response rating, Foxtail, Green", "setting": "[9]; [11]", "value": 40}, {"measurement": "Plant response rating, Foxtail, Green", "setting": "[9]; [12]", "value": 55}, {"measurement": "Plant response rating, Foxtail, Green", "setting": "[9]; [13]", "value": 80}, {"measurement": "Plant response rating, Foxtail, Green", "setting": "[9]; [14]", "value": 98}, {"measurement": "Plant response rating, Ryegrass, Italian", "setting": "[10]; [11]", "value": 40}, {"measurement": "Plant response rating, Ryegrass, Italian", "setting": "[10]; [12]", "value": 40}, {"measurement": "Plant response rating, Ryegrass, Italian", "setting": "[10]; [13]", "value": 50}, {"measurement": "Plant response rating, Ryegrass, Italian", "setting": "[10]; [14]", "value": 50}]}, {"smiles": "O=C1CCCC(O)=C1C(=O)c1cnc(-c2ccc(F)cc2)n(C2CCCCC2)c1=O", "note": "[Compound 197]", "values": [{"measurement": "Plant response rating, Cocklebur", "setting": "[1]; [11]", "value": 80}, {"measurement": "Plant response rating, Cocklebur", "setting": "[1]; [12]", "value": 100}, {"measurement": "Plant response rating, Cocklebur", "setting": "[1]; [13]", "value": 100}, {"measurement": "Plant response rating, Cocklebur", "setting": "[1]; [14]", "value": 100}, {"measurement": "Plant response rating, Foxtail, Giant", "setting": "[2]; [11]", "value": 85}, {"measurement": "Plant response rating, Foxtail, Giant", "setting": "[2]; [12]", "value": 95}, {"measurement": "Plant response rating, Foxtail, Giant", "setting": "[2]; [13]", "value": 98}, {"measurement": "Plant response rating, Foxtail, Giant", "setting": "[2]; [14]", "value": 100}, {"measurement": "Plant response rating, Johnsongrass", "setting": "[3]; [11]", "value": 70}, {"measurement": "Plant response rating, Johnsongrass", "setting": "[3]; [12]", "value": 85}, {"measurement": "Plant response rating, Johnsongrass", "setting": "[3]; [13]", "value": 95}, {"measurement": "Plant response rating, Johnsongrass", "setting": "[3]; [14]", "value": 100}, {"measurement": "Plant response rating, Soybean", "setting": "soybean (Glycine max); [11]", "value": 98}, {"measurement": "Plant response rating, Soybean", "setting": "soybean (Glycine max); [12]", "value": 100}, {"measurement": "Plant response rating, Soybean", "setting": "soybean (Glycine max); [14]", "value": 100}, {"measurement": "Plant response rating, Corn", "setting": "corn (Zea mays); [11]", "value": 15}, {"measurement": "Plant response rating, Corn", "setting": "corn (Zea mays); [12]", "value": 35}, {"measurement": "Plant response rating, Corn", "setting": "corn (Zea mays); [13]", "value": 45}, {"measurement": "Plant response rating, Corn", "setting": "corn (Zea mays); [14]", "value": 65}, {"measurement": "Plant response rating, Kochia", "setting": "kochia (Kochia scoparia); [11]", "value": 65}, {"measurement": "Plant response rating, Kochia", "setting": "kochia (Kochia scoparia); [12]", "value": 80}, {"measurement": "Plant response rating, Kochia", "setting": "kochia (Kochia scoparia); [13]", "value": 95}, {"measurement": "Plant response rating, Kochia", "setting": "kochia (Kochia scoparia); [14]", "value": 98}, {"measurement": "Plant response rating, Morningglory", "setting": "[4]; [11]", "value": 98}, {"measurement": "Plant response rating, Morningglory", "setting": "[4]; [12]", "value": 100}, {"measurement": "Plant response rating, Morningglory", "setting": "[4]; [13]", "value": 100}, {"measurement": "Plant response rating, Morningglory", "setting": "[4]; [14]", "value": 100}, {"measurement": "Plant response rating, Goosegrass", "setting": "[5]; [11]", "value": 85}, {"measurement": "Plant response rating, Goosegrass", "setting": "[5]; [12]", "value": 98}, {"measurement": "Plant response rating, Goosegrass", "setting": "[5]; [13]", "value": 100}, {"measurement": "Plant response rating, Goosegrass", "setting": "[5]; [14]", "value": 100}, {"measurement": "Plant response rating, Velvetleaf", "setting": "[6]; [11]", "value": 80}, {"measurement": "Plant response rating, Velvetleaf", "setting": "[6]; [12]", "value": 80}, {"measurement": "Plant response rating, Velvetleaf", "setting": "[6]; [14]", "value": 100}, {"measurement": "Plant response rating, Crabgrass, Large", "setting": "[7]; [11]", "value": 75}, {"measurement": "Plant response rating, Crabgrass, Large", "setting": "[7]; [12]", "value": 85}, {"measurement": "Plant response rating, Crabgrass, Large", "setting": "[7]; [13]", "value": 98}, {"measurement": "Plant response rating, Crabgrass, Large", "setting": "[7]; [14]", "value": 100}, {"measurement": "Plant response rating, Blackgrass", "setting": "[8]; [11]", "value": 0}, {"measurement": "Plant response rating, Blackgrass", "setting": "[8]; [12]", "value": 10}, {"measurement": "Plant response rating, Blackgrass", "setting": "[8]; [13]", "value": 10}, {"measurement": "Plant response rating, Blackgrass", "setting": "[8]; [14]", "value": 45}, {"measurement": "Plant response rating, Foxtail, Green", "setting": "[9]; [11]", "value": 5}, {"measurement": "Plant response rating, Foxtail, Green", "setting": "[9]; [12]", "value": 30}, {"measurement": "Plant response rating, Foxtail, Green", "setting": "[9]; [13]", "value": 50}, {"measurement": "Plant response rating, Foxtail, Green", "setting": "[9]; [14]", "value": 70}, {"measurement": "Plant response rating, Ryegrass, Italian", "setting": "[10]; [11]", "value": 0}, {"measurement": "Plant response rating, Ryegrass, Italian", "setting": "[10]; [12]", "value": 0}, {"measurement": "Plant response rating, Ryegrass, Italian", "setting": "[10]; [14]", "value": 35}]}]}
